Assays:
HCT-116 cell line = experiment: MTT anti-proliferative assay, HCT-116; type: cell-based; settings: Homo sapiens, 48 h, three independent experiments, read-out: In vitro cytotoxicity IC50, HCT-116
Experimental: In vitro antiproliferative activities of the target molecules were assessed against two human cancer cell lines namely, hepatocellular carcinoma (HepG2) and colorectal carcinoma (HCT-116) using MTT assay.
The anti-proliferative activity of the synthesized compounds was assessed using MTT assay protocol. A panel of human cancer cell lines namely, colorectal carcinoma (HCT-116) and hepatocellular carcinoma (HepG2) was used in this test. Doxorubicin was used as a positive control. The cell lines were got from ATCC (American Type Culture Collection) via the Holding company for biological products and vaccines (VACSERA, Cairo, Egypt). The anti-proliferative activities of the tested compounds were determined quantitatively as follows:
At first, the cells were cultured into a medium of RPMI-1640 with 10% fetal bovine serum. Then, two different antibiotics were added at 37°C in a 5% CO2 incubator: penicillin (100 units/mL) and streptomycin (100 μg/mL). Next, we seeded the cells in a 96-well plate by a density of 1.0 x 10^4 cells / well at 37°C for 48 h under 5% CO2. The synthesized compounds with different concentrations were applied into the cell lines and incubated for 48 h. After 48 h, 20 μl of MTT solution (5mg/mL) was added and incubated for 4 h. Then, DMSO (100 μl) was added into each well to dissolve the formed purple formazan. After that, a colorimetric assay was measured and recorded at absorbance of 570 nm using a plate reader (EXL 800, USA). The relative cell viability in percentage was calculated as (A570 of treated samples/A570 of untreated sample) X 100.
S2: Biological evaluation
S2.1. In vitro cytotoxic activity
The anti-proliferative activity of the synthesized compounds was assessed using MTT assay protocol. A panel of human cancer cell lines namely, colorectal carcinoma (HCT-116) and hepatocellular carcinoma (HepG2) was used in this test. As we targeted the DNA and Topo […]
cell lines were got from ATCC (American Type Culture Collection) via the Holding company for biological products and vaccines (VACSERA, Cairo, Egypt). The anti -proliferative activities of the tested compounds were determined quantitatively as follows:
At first, the cells were cultured into a medium of RPMI-1640 with 10% fetal bovine serum.
Then, two different antibiotics were added at 37 ᵒC in a 5% CO2 incubator: penicillin (100 units/mL) and streptomycin (100 µg/mL). Next, we seeded the cells in a 96 -well plate by a density of 1.0 x 10^4 cells / well at 37 ᵒC for 48 h under 5% CO2. The synthesized compounds with different concentrations were applied into the cell lines and incubated for 48 h. After 48 h, 20 µl of MTT solution (5mg/mL) was added and incubated for 4 h. Then, DMSO (100 µl) was added into each well to dissolve the formed purple formazan. After that, a colorimetric assay was measured and recorded at absorbance of 570 nm using a plate reader (EXL 800, USA). The relative cell viability in percentage was calculated as (A570 of treated samples/A570 of untreated sample) X 100. […]

Bcl-2 = experiment: Western blot, Bcl-2 level; type: cell-based, human; settings: HCT-116, 2.44 μM, 48 h
Experimental: In comparison to the control, compound 16 elevated the level of the proapoptotic protein (BAX) by 2.18 times. […] Furthermore, compound 16 enhanced the BAX/Bcl-2 ratio by 4.38-fold in comparison to control cells.
The effects of compound 16 on the expression of BAX, and Bcl‐2 were determined using Western blot analysis [62–64]as described in Electronic Supplementary Material S2.7 in S1 Appendix. […]
for 48 h. Then, the cells were fixed in 70% ethanol at 4 °C for 12 h. After that, the cells were washed with cold PBS, incubated with 100 μl RNase A at 37 °C for 30 min, and stained with 400 μl PI in the dark at room temperature for further 30 min. The stained cells were measured using Epics XL-MCL™ Flow Cytometer (Beckman Coulter), and the data were analyzed using Flowing software (version 2.5.1, Turku Centre for Biotechnology, Turku, Finland).
S2.6. Flow cytometry analysis for apoptosis
Flow cytometry cell apoptosis analysis was used to investigate the apoptotic effect of the synthesized compounds. […] The stained cells were measured using Epics XL-MCL™ Flow Cytometer and analyzed using Flowing software. […]
The proteins expression of BAX, and Bcl‐2 were determined using Western blot analysis. […] Total protein concentrations in the supernatant were determined colorimetrically using the Pierce 660 nm Protein Assay method (Thermo Fisher Scientific, Rockford, IL), with BSA as the standard. […]

## CCCNc1nc2ccccc2c2nnc(C(F)(F)F)n12 [Compound 16, N-Propyl-3-(trifluoromethyl)-[1,2,4]triazolo[4,3-c]quinazolin-5-amine]
HCT-116 cell line
  IC50: 2.44 ± 0.1 µM
Bcl-2
  Reduction of Bcl-2 level compared to control: 1.9 fold
Bcl-2; control = 1.00
  Protein expression (normalized to β-actin) Bcl-2: 0.52 ± 0.08
